# Assays:
# Details in all cases: 72 h
# [1] = system: U2OS; assay: drug sensitivity score (DSS) for viability; higher = more toxic; extreme values may be limits of the assay
# [2] = system: Vero E6; assay: as above
# [3] = system: Caco-2; assay: as above
# [4] = system: Calu-3; assay: as above
# [5] = system: HepG2; assay: as above
# [6] = system: U2OS; assay: cell viability relative to DMSO; higher = less toxic
# [7] = system: Vero E6; assay: as above
# [8] = system: Caco-2; assay: as above
# [9] = system: Calu-3; assay: as above
# [10] = system: HepG2; assay: as above
# [11] = system: U2OS; assay: relative viability EC50 (midpoint between 100% and the lowest measured viability); higher = less toxic
# [12] = system: Vero E6; assay: as above
# [13] = system: Caco-2; assay: as above
# [14] = system: Calu-3; assay: as above
# [15] = system: HepG2; assay: as above
Structure (SMILES),drug sensitivity score [1],drug sensitivity score [2],drug sensitivity score [3],drug sensitivity score [4],drug sensitivity score [5],cell viability ([6]; 1 nM),cell viability ([6]; 10 nM),cell viability ([6]; 100 nM),cell viability ([6]; 1000 nM),cell viability ([6]; 10000 nM),cell viability ([7]; 1 nM),cell viability ([7]; 10 nM),cell viability ([7]; 100 nM),cell viability ([7]; 1000 nM),cell viability ([7]; 10000 nM),cell viability ([8]; 1 nM),cell viability ([8]; 10 nM),cell viability ([8]; 100 nM),cell viability ([8]; 1000 nM),cell viability ([8]; 10000 nM),cell viability ([9]; 1 nM),cell viability ([9]; 10 nM),cell viability ([9]; 100 nM),cell viability ([9]; 1000 nM),cell viability ([9]; 10000 nM),cell viability ([10]; 1 nM),cell viability ([10]; 10 nM),cell viability ([10]; 100 nM),cell viability ([10]; 1000 nM),cell viability ([10]; 10000 nM),relative viability EC50 [11],relative viability EC50 [12],relative viability EC50 [13],relative viability EC50 [14],relative viability EC50 [15]
CCCc1ccc(C(=O)O)cc1 [4-propylbenzoic-acid],0,0,0,0,0,98.5%,94.9%,99.8%,98.9%,102%,93.2%,97.4%,91.9%,92.2%,103%,96.6%,96.4%,105%,89.7%,106%,106%,106%,101%,96.4%,97.2%,106%,106%,93.7%,104%,98.3%,> 10 µM,> 10 µM,> 10 µM,> 10 µM,> 10 µM
CCCN(CCC)[C@H]1CCc2cccc(O)c2C1 [8-hydroxy-DPAT],0,0,0,0,0,96.9%,98%,99.1%,102%,99.9%,97%,94.5%,99.2%,89.3%,104%,101%,101%,98%,98.8%,101%,99.2%,105%,97.4%,101%,102%,102%,102%,93.6%,109%,92.2%,> 10 µM,> 10 µM,> 10 µM,> 10 µM,> 10 µM
CC[C@H](NC(=O)c1c(O)c(-c2ccccc2)nc2ccccc12)c1ccccc1 [talnetant],0,0,0,0,1,100%,92.7%,104%,95%,101%,109%,102%,98.4%,102%,102%,97.9%,98.9%,101%,98.1%,90%,104%,97.3%,104%,96.5%,106%,102%,99%,94.6%,100%,74.2%,> 10 µM,> 10 µM,> 10 µM,> 10 µM,
O=c1n(CC2CO2)c(=O)n(CC2CO2)c(=O)n1CC1CO1 (stereo not drawn) [teroxirone],0,0.4,0.4,0,4,103%,95.7%,104%,102%,96.2%,100%,105%,98.5%,102%,80.8%,102%,101%,95.6%,93.2%,84.3%,94.4%,91.2%,99.3%,84.1%,90.9%,99.9%,100%,92.8%,91.1%,51.8%,> 10 µM,> 10 µM,> 10 µM,> 10 µM,

# Source: the supplement of paper PMC13380429
